Source: BindingDB's records for patent US11944616 (Institut National De La Sante Et De La Recherche Medicale …, 2024)

Target: Glutamate receptor ionotropic, NMDA 1 (Rattus norvegicus, UniProt P35439)
Assay: In Vitro Activity Assay
Source text: In Vitro Activity: Evaluation of NMDAR Blocking Activity Using Patch-ClampPrevious studies have shown that the NMDAR exists in the peripheral vasculature.All NMDAR subunits were examined by RT-PCR and sequencing in the peripheral endothelium and peripheral vascular smooth muscle cells.

Structure (SMILES): CC[N@@+]1(CCO)[C@H]2Cc3ccccc3[C@@]1(C)c1ccccc12 [US11944616, Compound 27]
- IC50: 360 nM
